Reference: US12239627B2, “Method of treating conditions related to the PGI2 receptor” (Arena Pharmaceuticals, Inc., priority 2014, dated 2025)

Assay: Phase 1 multiple ascending dose, dose titration study with healthy subjects (adverse events, tolerated dose)
Type: in vivo, human
Conditions: for Adverse Events (no. of subjects) leading to Decrease of Dose: Abdominal pain / Adverse Events (no. of subjects) leading to Decrease of Dose: Arthralgia / Adverse Events (no. of subjects) leading to Decrease of Dose: Chest discomfort / Adverse Events (no. of subjects) leading to Decrease of Dose: Chest pain / Adverse Events (no. of subjects) leading to Decrease of Dose: Diarrhoea / Adverse Events (no. of subjects) leading to Decrease of Dose: Dizziness / Adverse Events (no. of subjects) leading to Decrease of Dose: Headache / Adverse Events (no. of subjects) leading to Decrease of Dose: Jaw pain / Adverse Events (no. of subjects) leading to Decrease of Dose: Myalgia / Adverse Events (no. of subjects) leading to Decrease of Dose: Nausea / Adverse Events (no. of subjects) leading to Decrease of Dose: Palpitations / Adverse Events (no. of subjects) leading to Decrease of Dose: Priapism / Adverse Events (no. of subjects) leading to Decrease of Dose: Vomiting: Cohort 3, twice daily
Method: This study was a phase 1, randomized, double-blind, placebo-controlled, multiple-dose, dose titration study. A titration interval of 6 days was employed, with each dose being administered for at least 5 days. One goal was to determine the effect of dose titration on adverse effects.
In each of two subject cohorts, Cohort 1 and Cohort 2, subjects were treated at each dose level for duration of 5 days with exception of the last dose level which included 7 days of treatment.
The protocol was amended to provide for an additional cohort, Cohort 3, in order to evaluate a different dose escalation regimen, as disclosed below.
Cohorts 1 and 2: Two groups of 15 subjects were enrolled and randomized to receive placebo (5 subjects per Cohort) or a starting dose of 0.05 mg Compound 1 (10 subjects per Cohort) on Day I. Once daily (q.d.) dosing continued through 5 days. If tolerated, the next dose escalation (placebo or 0.1 mg q.d. Compound 1) occurred on Day 6 and this dose was administered daily through Day 10.
Subsequent dose escalations were to occur in the same manner every 6th day for up to 3 additional dose escalations if tolerated (placebo or 0.2, 0.3, and 0.4 mg Compound 1) with the final dose maintained for a duration of 7 days. The dose could be decreased (“de-escalated”) or increased (“re-escalated”) based on assessment of safety and tolerability.
Cohort 3: One group of 25 subjects (S placebo and 20 active) were enrolled and randomized to receive a starting dose of 0.01 mg Compound 1 twice daily or placebo on Day 1. Twice daily dosing continued through 5 days. If tolerated, the next dose escalation (placebo or Compound 1 0.02 mg twice daily) occurred on Day 6 and this dose was administered daily through Day 10. Subsequent dose escalations were to occur in the same manner every 6th day for up to 4 additional dose escalations if tolerated (placebo or 0.03, 0.04. 0.05, and 0.07 mg twice daily Compound 1). The dose could be decreased (“de-escalated”) or increased (“re-escalated”) based on assessment of safety and tolerability. The doses tested in this cohort were 0.01, 0.02, 0.03, 0.04, 0.05, and 0.07 mg administered twice daily for a total daily dose of 0.02, 0.04, 0.06, 0.08, 0.1, and 0.14 mg, respectively.
Compound 1 capsules were provided as 0.01 mg (all Cohorts) and 0.1 mg (Cohorts 1 and 2 only) strengths.

O=C(O)COC[C@H]1CC[C@H](COC(=O)N(c2ccccc2)c2ccc(Cl)cc2)CC1 [Compound 1, 2-(((1r,4r)-4-(((4-chlorophenyl)(phenyl)carbamoyloxy)methyl)cyclohexyl)methoxy)acetic acid]
0 subjects: Adverse Events (no. of subjects) leading to Decrease of Dose: Abdominal pain (0.01 mg (N = 20)) | Adverse Events (no. of subjects) leading to Decrease of Dose: Arthralgia (0.01 mg (N = 20)) | Adverse Events (no. of subjects) leading to Decrease of Dose: Chest discomfort (0.01 mg (N = 20)) | Adverse Events (no. of subjects) leading to Decrease of Dose: Chest pain (0.01 mg (N = 20)) | Adverse Events (no. of subjects) leading to Decrease of Dose: Diarrhoea (0.01 mg (N = 20)) | Adverse Events (no. of subjects) leading to Decrease of Dose: Dizziness (0.01 mg (N = 20)) | Adverse Events (no. of subjects) leading to Decrease of Dose: Jaw pain (0.01 mg (N = 20)) | Adverse Events (no. of subjects) leading to Decrease of Dose: Nausea (0.01 mg (N = 20)) | Adverse Events (no. of subjects) leading to Decrease of Dose: Palpitations (0.01 mg (N = 20)) | Adverse Events (no. of subjects) leading to Decrease of Dose: Priapism (0.01 mg (N = 20)) | Adverse Events (no. of subjects) leading to Decrease of Dose: Vomiting (0.01 mg (N = 20)) | Adverse Events (no. of subjects) leading to Decrease of Dose: Abdominal pain (0.02 mg (N = 20)) | Adverse Events (no. of subjects) leading to Decrease of Dose: Chest discomfort (0.02 mg (N = 20)) | Adverse Events (no. of subjects) leading to Decrease of Dose: Dizziness (0.02 mg (N = 20)) | Adverse Events (no. of subjects) leading to Decrease of Dose: Jaw pain (0.02 mg (N = 20)) | Adverse Events (no. of subjects) leading to Decrease of Dose: Priapism (0.02 mg (N = 20)) | Adverse Events (no. of subjects) leading to Decrease of Dose: Arthralgia (0.03 mg (N = 20)) | Adverse Events (no. of subjects) leading to Decrease of Dose: Chest pain (0.03 mg (N = 20)) | Adverse Events (no. of subjects) leading to Decrease of Dose: Dizziness (0.03 mg (N = 20)) | Adverse Events (no. of subjects) leading to Decrease of Dose: Jaw pain (0.03 mg (N = 20)) | Adverse Events (no. of subjects) leading to Decrease of Dose: Palpitations (0.03 mg (N = 20)) | Adverse Events (no. of subjects) leading to Decrease of Dose: Vomiting (0.03 mg (N = 20)) | Adverse Events (no. of subjects) leading to Decrease of Dose: Abdominal pain (0.04 mg (N = 12)) | Adverse Events (no. of subjects) leading to Decrease of Dose: Arthralgia (0.04 mg (N = 12)) | Adverse Events (no. of subjects) leading to Decrease of Dose: Chest discomfort (0.04 mg (N = 12)) | Adverse Events (no. of subjects) leading to Decrease of Dose: Chest pain (0.04 mg (N = 12)) | Adverse Events (no. of subjects) leading to Decrease of Dose: Diarrhoea (0.04 mg (N = 12)) | Adverse Events (no. of subjects) leading to Decrease of Dose: Jaw pain (0.04 mg (N = 12)) | Adverse Events (no. of subjects) leading to Decrease of Dose: Myalgia (0.04 mg (N = 12)) | Adverse Events (no. of subjects) leading to Decrease of Dose: Nausea (0.04 mg (N = 12)) | Adverse Events (no. of subjects) leading to Decrease of Dose: Palpitations (0.04 mg (N = 12)) | Adverse Events (no. of subjects) leading to Decrease of Dose: Priapism (0.04 mg (N = 12)) | Adverse Events (no. of subjects) leading to Decrease of Dose: Vomiting (0.04 mg (N = 12)) | Adverse Events (no. of subjects) leading to Decrease of Dose: Arthralgia (0.05 mg (N = 8)) | Adverse Events (no. of subjects) leading to Decrease of Dose: Chest discomfort (0.05 mg (N = 8)) | Adverse Events (no. of subjects) leading to Decrease of Dose: Chest pain (0.05 mg (N = 8)) | Adverse Events (no. of subjects) leading to Decrease of Dose: Diarrhoea (0.05 mg (N = 8)) | Adverse Events (no. of subjects) leading to Decrease of Dose: Headache (0.05 mg (N = 8)) | Adverse Events (no. of subjects) leading to Decrease of Dose: Jaw pain (0.05 mg (N = 8)) | Adverse Events (no. of subjects) leading to Decrease of Dose: Myalgia (0.05 mg (N = 8)) | Adverse Events (no. of subjects) leading to Decrease of Dose: Nausea (0.05 mg (N = 8)) | Adverse Events (no. of subjects) leading to Decrease of Dose: Palpitations (0.05 mg (N = 8)) | Adverse Events (no. of subjects) leading to Decrease of Dose: Priapism (0.05 mg (N = 8)) | Adverse Events (no. of subjects) leading to Decrease of Dose: Vomiting (0.05 mg (N = 8)) | Adverse Events (no. of subjects) leading to Decrease of Dose: Abdominal pain (0.07 mg (N = 4)) | Adverse Events (no. of subjects) leading to Decrease of Dose: Chest discomfort (0.07 mg (N = 4)) | Adverse Events (no. of subjects) leading to Decrease of Dose: Chest pain (0.07 mg (N = 4)) | Adverse Events (no. of subjects) leading to Decrease of Dose: Diarrhoea (0.07 mg (N = 4)) | Adverse Events (no. of subjects) leading to Decrease of Dose: Dizziness (0.07 mg (N = 4)) | Adverse Events (no. of subjects) leading to Decrease of Dose: Myalgia (0.07 mg (N = 4)) | Adverse Events (no. of subjects) leading to Decrease of Dose: Palpitations (0.07 mg (N = 4))
0.04 mg-4 subjects: Subjects with Final Compound 1 Total Daily Dose of 0.04 mg (Cohort 3)
0.06 mg-6 subjects: Subjects with Final Compound 1 Total Daily Dose of 0.06 mg (Cohort 3)
0.08 mg-11 subjects: Subjects who received 0.08 mg as highest dose for at least 3 days (Cohort 3)
0.14 mg-3 subjects: Subjects who received 0.14 mg as highest dose for at least 3 days (Cohort 3)
1 subjects: Adverse Events (no. of subjects) leading to Decrease of Dose: Headache (0.01 mg (N = 20)) | Adverse Events (no. of subjects) leading to Decrease of Dose: Myalgia (0.01 mg (N = 20)) | Adverse Events (no. of subjects) leading to Decrease of Dose: Arthralgia (0.02 mg (N = 20)) | Adverse Events (no. of subjects) leading to Decrease of Dose: Chest pain (0.02 mg (N = 20)) | Adverse Events (no. of subjects) leading to Decrease of Dose: Diarrhoea (0.02 mg (N = 20)) | Adverse Events (no. of subjects) leading to Decrease of Dose: Palpitations (0.02 mg (N = 20)) | Adverse Events (no. of subjects) leading to Decrease of Dose: Vomiting (0.02 mg (N = 20)) | Adverse Events (no. of subjects) leading to Decrease of Dose: Abdominal pain (0.03 mg (N = 20)) | Adverse Events (no. of subjects) leading to Decrease of Dose: Chest discomfort (0.03 mg (N = 20)) | Adverse Events (no. of subjects) leading to Decrease of Dose: Diarrhoea (0.03 mg (N = 20)) | Adverse Events (no. of subjects) leading to Decrease of Dose: Headache (0.03 mg (N = 20)) | Adverse Events (no. of subjects) leading to Decrease of Dose: Myalgia (0.03 mg (N = 20)) | Adverse Events (no. of subjects) leading to Decrease of Dose: Nausea (0.03 mg (N = 20)) | Adverse Events (no. of subjects) leading to Decrease of Dose: Priapism (0.03 mg (N = 20)) | Adverse Events (no. of subjects) leading to Decrease of Dose: Headache (0.04 mg (N = 12)) | Adverse Events (no. of subjects) leading to Decrease of Dose: Abdominal pain (0.05 mg (N = 8)) | Adverse Events (no. of subjects) leading to Decrease of Dose: Dizziness (0.05 mg (N = 8)) | Adverse Events (no. of subjects) leading to Decrease of Dose: Arthralgia (0.07 mg (N = 4)) | Adverse Events (no. of subjects) leading to Decrease of Dose: Headache (0.07 mg (N = 4)) | Adverse Events (no. of subjects) leading to Decrease of Dose: Jaw pain (0.07 mg (N = 4)) | Adverse Events (no. of subjects) leading to Decrease of Dose: Nausea (0.07 mg (N = 4))
0.08 mg-2 subjects: Subjects with Final Compound 1 Total Daily Dose of 0.08 mg (Cohort 3)
0.14 mg-2 subjects: Subjects with Final Compound 1 Total Daily Dose of 0.14 mg (Cohort 3)
0.10 mg-8 subjects: Subjects who received 0.10 mg as highest dose for at least 3 days (Cohort 3)
0.06 mg-19 subjects: Subjects who received 0.06 mg as highest dose for at least 3 days (Cohort 3)
3 subjects: Adverse Events (no. of subjects) leading to Decrease of Dose: Nausea (0.02 mg (N = 20))
2 subjects: Adverse Events (no. of subjects) leading to Decrease of Dose: Myalgia (0.02 mg (N = 20)) | Adverse Events (no. of subjects) leading to Decrease of Dose: Dizziness (0.04 mg (N = 12))
0.10 mg-6 subjects: Subjects with Final Compound 1 Total Daily Dose of 0.10 mg (Cohort 3)
6 subjects: Adverse Events (no. of subjects) leading to Decrease of Dose: Headache (0.02 mg (N = 20))
0.04 mg-20 subjects: Subjects who received 0.04 mg as highest dose for at least 3 days (Cohort 3)
